# Legend:
# [1] = biological target: T1, Indoleamine 2,3-dioxygenase 1 (Homo sapiens, UniProt P14902); test: Inhibition of recombinant human IDO1 assessed as N-formylkynurenine formation using L-tryptophan as substrate measured after 1 hr by UV-vis spectrophotometric analysis
# [2] = biological target: Tryptophan 2,3-dioxygenase (Homo sapiens, UniProt P48775); test: Inhibition of recombinant human TDO assessed as N-formylkynurenine formation using L-tryptophan as substrate measured after 1 hrs by UV-vis spectrophotometric analysis
# [3] = biological target: T1, Indoleamine 2,3-dioxygenase 1; test: Inhibition of human IDO1 in IFN-gamma-induced human MDA-MB-231 cells assessed as N-formylkynurenine formation using L-tryptophan as substrate pretreated for 4 hrs followed substrate addition measured after 5 hrs by UV-vis spectrophotometric analysis; assay type: cell-based
# [4] = biological target: T1, Indoleamine 2,3-dioxygenase 1; test: Inhibition of recombinant human IDO1 assessed as N-formylkynurenine formation using L-tryptophan as substrate measured after 1.5 hrs by HPLC analysis
# T1 sequence (P14902 whole entry): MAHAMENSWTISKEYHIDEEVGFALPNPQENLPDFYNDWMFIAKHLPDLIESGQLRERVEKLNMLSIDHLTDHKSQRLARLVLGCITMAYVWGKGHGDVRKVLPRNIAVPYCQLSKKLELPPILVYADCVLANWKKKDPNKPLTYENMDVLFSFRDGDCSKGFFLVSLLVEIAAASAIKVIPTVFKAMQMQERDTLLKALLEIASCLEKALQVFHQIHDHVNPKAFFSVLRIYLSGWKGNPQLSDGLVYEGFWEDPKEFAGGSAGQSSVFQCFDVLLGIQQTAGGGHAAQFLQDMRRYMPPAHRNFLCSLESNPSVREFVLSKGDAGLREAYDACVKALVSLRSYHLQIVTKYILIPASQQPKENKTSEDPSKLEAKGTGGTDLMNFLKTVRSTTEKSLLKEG
# Chain of Tryptophan 2,3-dioxygenase (P48775 whole entry): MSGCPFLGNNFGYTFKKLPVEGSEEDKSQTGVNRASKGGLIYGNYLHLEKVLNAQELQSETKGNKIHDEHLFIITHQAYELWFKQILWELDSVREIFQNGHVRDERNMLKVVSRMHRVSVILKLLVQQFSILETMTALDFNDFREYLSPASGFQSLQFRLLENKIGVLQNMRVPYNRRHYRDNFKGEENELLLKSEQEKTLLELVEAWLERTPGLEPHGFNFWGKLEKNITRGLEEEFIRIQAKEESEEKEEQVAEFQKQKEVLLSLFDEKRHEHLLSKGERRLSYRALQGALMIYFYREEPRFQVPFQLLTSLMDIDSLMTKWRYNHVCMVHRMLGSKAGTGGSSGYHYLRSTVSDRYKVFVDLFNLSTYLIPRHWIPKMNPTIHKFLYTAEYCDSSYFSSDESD
Compound,IC50 [1] [nM],IC50 [2] [nM],IC50 [3] [nM],IC50 [4] [nM]
O=[N+]([O-])c1ccc(N/C(Cc2ccc(F)cc2F)=N\O)c2nonc12,160,19000,,
O=[N+]([O-])c1ccc(N/C(=N\O)c2ccccc2F)c2nonc12,63,110000,131,56
O=[N+]([O-])c1ccc(N/C(Cc2ccc(F)cc2)=N\O)c2nonc12,98,65000,151,73
O=[N+]([O-])c1ccc(N/C(Cc2ccccc2F)=N\O)c2nonc12,102,30000,131,75
O=[N+]([O-])c1ccc(N/C(=N\O)c2ccc(Br)cc2)c2nonc12,117,50000,,
O=[N+]([O-])c1ccc(N/C(Cc2ccc(Cl)cc2)=N\O)c2nonc12,127,51000,110,78
O=[N+]([O-])c1ccc(N/C(=N\O)c2cccc(Cl)c2)c2nonc12,184,,,
O=[N+]([O-])c1ccc(N/C(=N\O)c2ccccc2)c2nonc12,268,,,
O=[N+]([O-])c1ccc(N/C(Cc2cccc(Cl)c2)=N\O)c2nonc12,199,,,
O=[N+]([O-])c1ccc(N/C(=N\O)c2ccc(F)c(Br)c2)c2nonc12,92,47000,107,106
O=[N+]([O-])c1ccc(N/C(=N\O)c2cccc(F)c2)c2nonc12,75,45000,245,84
O=[N+]([O-])c1ccc(N/C(Cc2cccc(F)c2)=N\O)c2nonc12,131,,,
O=[N+]([O-])c1ccc(N/C(=N\O)c2ccccc2Cl)c2nonc12,135,,,
COc1ccc(C/C(=N/O)Nc2ccc([N+](=O)[O-])c3nonc23)cc1,128,,,
O=[N+]([O-])c1ccc(N/C(=N\O)c2ccc(Cl)cc2)c2nonc12,113,40000,,
O=[N+]([O-])c1ccc(N/C(Cc2ccccc2)=N\O)c2nonc12,307,,,
O=[N+]([O-])c1ccc(N/C(Cc2ccc(Cl)c(Cl)c2)=N\O)c2nonc12,39,32000,71,53
O=[N+]([O-])c1ccc(N/C(Cc2ccc(F)c(F)c2)=N\O)c2nonc12,59,94000,50,49
Cc1cccc(/C(=N/O)Nc2ccc([N+](=O)[O-])c3nonc23)c1,163,,,
O=[N+]([O-])c1ccc(N/C(=N\O)c2ccccc2Br)c2nonc12,80,25000,66,64
Cc1ccc(/C(=N/O)Nc2ccc([N+](=O)[O-])c3nonc23)cc1,204,,,
O=[N+]([O-])c1ccc(N/C(=N\O)c2ccc(F)c(Cl)c2)c2nonc12,158,,,
O=[N+]([O-])c1ccc(N/C(=N\O)c2cccc(Br)c2)c2nonc12,105,20000,,
O=[N+]([O-])c1ccc(N/C(=N\O)c2ccc(F)cc2)c2nonc12,100,21000,125,60
O=[N+]([O-])c1ccc(N/C(Cc2ccc(Br)cc2)=N\O)c2nonc12,112,43000,,
Nc1nonc1C(=NO)Nc1ccc(F)c(Cl)c1,,24000,,
